Measurements reported in paper PMC12635268, “Novel antimicrobial peptides and peptide-microbiome crosstalk in Appalachian salamander skin” (NPJ Biofilms and Microbiomes, 2025).
Values after ≈ are worked out from the molar mass of the structure shown. Read-outs that look alike come from different tables or passages of the source.

Experiments:
HepG2 (ATCC HB-8065) = experiment: HepG2 cytotoxicity, MTT assay; format: cell-based, human; conditions: at concentrations up to 5.25 μg/mL (5.25 to 0.15 µg/mL), 48 h
Method: For any inhibitory peptides, HepG2 (ATCC HB-8065) cytotoxicity was tested to determine half-maximal inhibitory concentration (IC50) of human cells. The procedure involved seeding 96-well plates with 2.5 × 10^4 cells per well in 170 µL of culture medium, followed by an overnight incubation at 37 °C in a 5% CO₂ atmosphere. Subsequently, cells were exposed to varying concentrations of the test peptides, ranging from 5.25 µg/mL to 0.15 µg/mL, and incubated for an additional 48 h. Cell viability was assessed using the MTT assay, as previously described. Absorbance measurements were obtained using a PerkinElmer EnSight plate reader. The IC50 values for each compound were calculated by fitting the data to a sigmoidal dose-response curve with variable slope using GraphPad Prism software. Each assay plate included three controls: (a) background control—wells without cells and without drug; (b) positive control—wells with cells and 10 µg/mL of a known toxic compound; and (c) DMSO control—wells with cells and 0.2% DMSO, the highest concentration of DMSO used in the assay, which is non-toxic to the cells.

[1] = parameters: method as in Biomatik (vendor); conditions: 1.0 mg peptide in 1.0 ml solvent; peptides synthesized by Biomatik; ref Biomatik (vendor); cited from earlier work
A. baumannii 5075 [2] = test system: A. baumannii 5075
K. pneumoniae 4640 [3] = conditions: K. pneumoniae 4640
A. baumannii ATCC 17978 = experiment: microbe, parasite or virus in culture; conditions: for Bacterial MIC: A. baumannii 17978; for MIC: Acinetobacter baumannii
Procedure, shortened: (§1)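 Peptides tested 0.25–128 μg/mL (2-fold dilutions, TFA/BSA carrier) against 1 × 10⁵ CFU/mL inoculum in CAMHB, duplicates.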

E. cloacae ATCC 13047 = experiment: microbe, parasite or virus in culture; conditions: for Bacterial MIC: E. cloacae 13047; for MIC: Enterobacter cloacae
Procedure, shortened: as §1

E. cloacae ATCC 35549 = experiment: microbe, parasite or virus in culture; conditions: for Bacterial MIC: E. cloacae 35549; for MIC: Enterobacter cloacae
Procedure, shortened: as §1

E. coli ATCC 43888 = experiment: microbe, parasite or virus in culture; conditions: for Bacterial MIC: E. coli 43888; for MIC: Escherichia coli
Procedure, shortened: as §1

K. pneumoniae 4640 [4] = experiment: microbe, parasite or virus in culture
A. baumannii 5075 [5] = experiment: microbe, parasite or virus in culture
[6] = CAMHB, 1 × 10⁵ CFU/mL, 0.25 to 128 μg/mL, 37 °C 20 h, duplicate, read visually (CLSI)

In the case of CC[C@H](C)[C@H](NC(=O)[C@H](CCCCN)NC(=O)[C@H](CCC(=O)O)NC(=O)[C@H](CCCCN)NC(=O)[C@H](CO)NC(=O)[C@H](CCCCN)NC(=O)[C@H](CCCNC(=N)N)NC(=O)[C@H](Cc1ccccc1)NC(=O)[C@H](Cc1ccccc1)NC(=O)[C@H](CC(=O)O)NC(=O)CNC(=O)[C@H](CC(C)C)NC(=O)[C@@H](N)CC(C)C)C(=O)NCC(=O)N[C@@H](CCCCN)C(=O)N[C@@H](CCC(=O)O)C(=O)N[C@@H](Cc1ccccc1)C(=O)N[C@@H](CCCCN)C(=O)N[C@@H](CCCNC(=N)N)C(=O)N[C@H](C(=O)N[C@H](C(=O)N[C@@H](CCC(N)=O)C(=O)N[C@@H](CCCNC(=N)N)C(=O)N[C@H](C(=O)N[C@@H](CCCCN)C(=O)N[C@@H](CC(=O)O)C(=O)N[C@@H](Cc1ccccc1)C(=O)N[C@@H](CC(C)C)C(=O)N[C@@H](CCCNC(=N)N)C(=O)N[C@@H](CC(N)=O)C(=O)N[C@@H](CC(C)C)C(=O)N[C@H](C(=O)N1CCC[C@H]1C(=O)N[C@@H](CCCNC(=N)N)C(=O)N[C@H](C(=O)N[C@@H](CCC(=O)O)C(=O)N[C@@H](CO)C(=O)O)[C@@H](C)O)C(C)C)[C@@H](C)CC)C(C)C)[C@@H](C)CC [LL-37, reference compound], the “HepG2 cytotoxicity in words” value (HepG2 (ATCC HB-8065)) is given as “No HepG2 cytotox was observed”, the “Suggest solvent (solubility)” value [1] is given as 1.0mg peptide soluble in 1.0ml (H2O:Acetonitrile=3:1) and the MIC (A. baumannii 5075 [2]; [6]) is given as 4 mg/L (≈ 0.89 µM). For the same molecule, the “Bacterial MIC” value (A. baumannii 5075 [2]; Week 1 (12/6/2023)) was 4 mg/L, the “Bacterial MIC” value (A. baumannii 5075 [2]; Week 2 (12/14/2023)) was 4 mg/L and the MIC (K. pneumoniae 4640 [3]; [6]) was 64 mg/L (≈ 14.2 µM). The “Bacterial MIC” value (K. pneumoniae 4640 [3]; Week 1 (12/6/2023)) was 64 mg/L and the “Bacterial MIC” value (K. pneumoniae 4640 [3]; Week 2 (12/14/2023)) was 64 mg/L.

In the case of C[C@H]1COc2c(N3CCN(C)CC3)c(F)cc3c(=O)c(C(=O)O)cn1c23 [Levofloxacin, reference compound], the “Bacterial MIC” value (A. baumannii ATCC 17978; Historical run 15NOV23) is reported as “<= 0.250 µg/mL”, the “Bacterial MIC” value (A. baumannii ATCC 17978; Historical run 19APRIL23) is reported as “<= 0.250 µg/mL” and the “Bacterial MIC” value (A. baumannii ATCC 17978; Historical run 22NOV23) is reported as “<= 0.250 µg/mL”. The “Bacterial MIC” value (A. baumannii ATCC 17978; Week 2 (12/14/2023)) was “<= 0.250 µg/mL”, the MIC (A. baumannii ATCC 17978; ATCC17978, 20 h) was 0.25 mg/L (≈ 0.692 µM) and the MIC (A. baumannii ATCC 17978; ATCC17978, read-out: Bacterial MIC) was at most 0.25 mg/L. For the same molecule, the “Bacterial MIC” value (E. cloacae ATCC 13047; Historical run 15NOV23) was “<= 0.250 µg/mL”, the “Bacterial MIC” value (E. cloacae ATCC 13047; Historical run 19APRIL23) was “<= 0.250 µg/mL” and the “Bacterial MIC” value (E. cloacae ATCC 13047; Historical run 22NOV23) was “<= 0.250 µg/mL”. For the same molecule, the “Bacterial MIC” value (E. cloacae ATCC 13047; Week 2 (12/14/2023)) was “<= 0.250 µg/mL”, the MIC (E. cloacae ATCC 13047; ATCC13047, 20 h) was 0.25 mg/L (≈ 0.692 µM) and the MIC (E. cloacae ATCC 13047; ATCC13047, read-out: Bacterial MIC) was at most 0.25 mg/L. The “Bacterial MIC” value (E. cloacae ATCC 35549; Historical run 15NOV23) was “<= 0.250 µg/mL”, the “Bacterial MIC” value (E. cloacae ATCC 35549; Historical run 19APRIL23) was “<= 0.250 µg/mL” and the “Bacterial MIC” value (E. cloacae ATCC 35549; Historical run 22NOV23) was “<= 0.250 µg/mL”. For the same molecule, the “Bacterial MIC” value (E. cloacae ATCC 35549; Week 2 (12/14/2023)) was “<= 0.250 µg/mL”, the MIC (E. cloacae ATCC 35549; ATCC35549, 20 h) was 0.25 mg/L (≈ 0.692 µM) and the MIC (E. cloacae ATCC 35549; ATCC35549, read-out: Bacterial MIC) was at most 0.25 mg/L. For the same molecule, the “Bacterial MIC” value (E. coli ATCC 43888; Historical run 15NOV23) was “<= 0.250 µg/mL”, the “Bacterial MIC” value (E. coli ATCC 43888; Historical run 19APRIL23) was “<= 0.250 µg/mL” and the “Bacterial MIC” value (E. coli ATCC 43888; Historical run 22NOV23) was “<= 0.250 µg/mL”. For the same molecule, the “Bacterial MIC” value (E. coli ATCC 43888; Week 2 (12/14/2023)) was “<= 0.250 µg/mL”, the MIC (E. coli ATCC 43888; ATCC43888, 20 h) was 0.25 mg/L (≈ 0.692 µM) and the MIC (E. coli ATCC 43888; ATCC43888, read-out: Bacterial MIC) was at most 0.25 mg/L. The MIC (K. pneumoniae 4640 [4]; Klebsiella pneumoniae, 4640, 20 h, K. pneumoniae 4640, CAMHB, 1 × 10⁵ CFU/mL, 0.25 to 128 μg/mL, 37 °C 20 h, duplicate, read visually (CLSI)) was 32 mg/L (≈ 88.6 µM), the MIC (K. pneumoniae 4640 [4]; Klebsiella pneumoniae, 4640, read-out: Bacterial MIC, K. pneumoniae 4640, Historical run 15NOV23) was 32 to 64 mg/L (≈ 88.6 to 177 µM) and the MIC (K. pneumoniae 4640 [4]; Klebsiella pneumoniae, 4640, read-out: Bacterial MIC, K. pneumoniae 4640, Historical run 19APRIL23) was 64 mg/L (≈ 177 µM). The MIC (K. pneumoniae 4640 [4]; Klebsiella pneumoniae, 4640, read-out: Bacterial MIC, K. pneumoniae 4640, Historical run 22NOV23) was 32 mg/L (≈ 88.6 µM), the MIC (K. pneumoniae 4640 [4]; Klebsiella pneumoniae, 4640, read-out: Bacterial MIC, K. pneumoniae 4640, Week 1 (12/6/2023)) was 32 mg/L (≈ 88.6 µM) and the MIC (K. pneumoniae 4640 [4]; Klebsiella pneumoniae, 4640, read-out: Bacterial MIC, K. pneumoniae 4640, Week 2 (12/14/2023)) was 32 mg/L (≈ 88.6 µM). The MIC (A. baumannii 5075 [5]; Acinetobacter baumannii, 5075, 20 h, A. baumannii 5075, CAMHB, 1 × 10⁵ CFU/mL, 0.25 to 128 μg/mL, 37 °C 20 h, duplicate, read visually (CLSI)) was 4 mg/L (≈ 11.1 µM), the MIC (A. baumannii 5075 [5]; Acinetobacter baumannii, 5075, read-out: Bacterial MIC, A. baumannii 5075, Historical run 15NOV23) was 8 mg/L (≈ 22.1 µM) and the MIC (A. baumannii 5075 [5]; Acinetobacter baumannii, 5075, read-out: Bacterial MIC, A. baumannii 5075, Historical run 19APRIL23) was 4 mg/L (≈ 11.1 µM). The MIC (A. baumannii 5075 [5]; Acinetobacter baumannii, 5075, read-out: Bacterial MIC, A. baumannii 5075, Historical run 22NOV23) was 4 mg/L (≈ 11.1 µM), the MIC (A. baumannii 5075 [5]; Acinetobacter baumannii, 5075, read-out: Bacterial MIC, A. baumannii 5075, Week 1 (12/6/2023)) was 4 mg/L (≈ 11.1 µM) and the MIC (A. baumannii 5075 [5]; Acinetobacter baumannii, 5075, read-out: Bacterial MIC, A. baumannii 5075, Week 2 (12/14/2023)) was 4 mg/L (≈ 11.1 µM).
